Results published in patent US10350262B2, “MCJ agonists and uses therefor” (priority 2015, dated 2019).
“Also recorded” adds a separate entry of the source. No end group written: not given here.

Tests used:
MCF7/ADR cells = experiment: Viable cell count of MCF7/ADR cells (Trypan blue); format: cell-based, human; conditions: doxorubicin 3 μM, 2 days
Description: (§1) FIG. 15A provides results of Western blot analysis for MCJ in MCF7 cells and MCF7/ADR (ADR) cells. Actin was used as loading control. […] Viable cells were counted 2 days later.
(§2) FIG. 16A-B provides graphs showing response to MCJ agonists. […] Cells were harvested 2 days later and viable cells were counted. […] Mice were harvested at day 4. The size of a tumor over time was determined by caliper measurements, and is represented as a percentage relative to the initial size prior to the treatment. p<0.05 as determined by a paired t-test.
(§3) Cell Culture. MCF7 and MCF7/ADR cells were a kind gift from Dr. Ken Cowan (National Cancer Institute, Bethesda, Md.). MCF7/siMCJ cells were generated by stable transfection with a plasmid expressing a shRNA for MCJ (siMCJ) as described in Hatle, K. M., et al., Mol Cell Biol 27, 2952-2966 (2007). All cells were maintained at 37 C, 5% CO2 in RPMI-1640 (Life technologies, Inc., Gaithersburg, Md.) containing 5% FBS.
(§4) Cell count. Cells were trypsinized, washed, and resuspended in medium. Number of viable cells was measured by counting using Trypan blue dye to exclude dead cells (visualized as blue).
(§5) Doxorubicin and peptides treatment in vitro. Doxorubicin (Sigma-Aldrich) was used at 3 μM final concentration. The three different peptides described in the examples (SEQ ID NO: 2, 18 or 6) were resuspended at 10 mM stock concentration in PBS. The peptides were used a different concentration as indicated for each example (1, 10, or 50 μM). Cells were plated the day prior the treatment (18-20 h prior to the treatment). For treatments with peptides only, peptides were added to the plates at the indicated concentrations, and after 2 or 3 days (as indicated for each example) cells were trypsinized, resuspended, and counted. For the treatment with doxorubicin and peptides, cells were pretreated with the corresponding peptide for 4 h prior to adding doxorubicin.
MCF7/ADR cells were incubated (using standard procedures) for three days in media alone or in media plus three different MCJ based polypeptides each at a concentration of 50 μM in media. The cells of set one were incubated in media and served as a control set. The cells of set two were incubated in media that included a 50 μM concentration of a MCJ polypeptide without a targeting agent polypeptide. The amino acid sequence of the N-MCJ polypeptide without a targeting agent polypeptide was […] (SEQ ID NO:2). The cells of set three were incubated in media that included a 50 μM concentration of a TAT-N-MCJ polypeptide. The amino acid sequence of the TAT-N-MCJ polypeptide was: […] (SEQ ID NO:18). […]

[1] = system: mammary tumors in MMTV mice; experiment: Doxorubicin treatment in vivo, mammary tumor size in MMTV mice; parameters: species or system mouse; conditions: doxorubicin 2 mg/Kg i.p. every other day for two weeks, n=4
From the text: (§6) Mice. […] MCJ KO mice were crossed with the previously described MMTV-PyMT mice [see: Guy, C. T., et. al., Mol Cell Biol 12, 954-961 (1992)] to generate MCJ KO MMTV mice. Wildtype MMTV mice and MCJ KO MMTV mice were used for the experiments. All mice were housed under sterile conditions at the animal care facility at the University of Vermont. The procedures were approved by the University of Vermont Institutional Animal Care and Use Committee.
Doxorubicin and peptides treatment in vivo. MTV mice and MCJ KO MMTV mice were used to assay response to doxorubicin and MCJ peptides. The treatments were initiated around 2.5-3 months of age when the mammary tumor these mice develop reach 300 mm^3. Doxorubicin was administered intreperitoneal in PBS (100 μl per mouse) at a dose of 2 mg/Kg. TAT-N-MCJ-mts peptide (SEQ ID NO: 6) was administered at the time of doxorubicin by a subcutaneous injection in PBS (100 μl per mouse) at a dose of 10 mg/Kg. Administrations of doxorubicin and peptide were performed every other day for the indicated period of time. Perpendicular tumor diameters were measured using a vernier scale caliper and tumor volume estimated using the formula for ellipsoid (width×high×length)/2. […]
The size of a tumor over time was determined by caliper measurements, and is represented as a percentage relative to the initial size prior to the treatment. p<0.05 as determined by a paired t-test.

[2] = system: mammary tumors in MCJ KO MMTV mice; experiment: Doxorubicin and peptide treatment in vivo, mammary tumor size in MCJ KO MMTV mice; parameters: species or system mouse
Description: as §2, §6
Doxorubicin and peptides treatment in vivo. MTV mice and MCJ KO MMTV mice were used to assay response to doxorubicin and MCJ peptides. The treatments were initiated around 2.5-3 months of age when the mammary tumor these mice develop reach 300 mm^3. […] Perpendicular tumor diameters were measured using a vernier scale caliper and tumor volume estimated using the formula for ellipsoid (width×high×length)/2. […]
The size of a tumor over time was determined by caliper measurements, and is represented as a percentage relative to the initial size prior to the treatment. p<0.05 as determined by a paired t-test. […]

MCF7 cells = experiment: Viable cell count of MCF7 cells (Trypan blue); format: cell-based, human; conditions: doxorubicin 3 μM
From the text: as §1, §3, §4, §5
MCF7 cells and MCF7/ADR cells were incubated (using standard procedures) for two days in media alone or in media that included different concentrations of the TAT-N-MCS-MTS polypeptide having the amino acid sequence set forth as: […]

[3] = mouse
Description: MCF7/ADR cells were treated with doxorubicin, TAT-N-MCJ-mts peptide alone or in combination. […] Thus, at lower doses, MCJ agonists could overcome chemo-resistance of breast cancer cells in vitro. A study was also performed that tested the effect of the TAT-N-MCJ-mts peptide in combination with chemotherapy in vivo using the MMTV mammary tumor mouse model. […] Therefore MCJ KO MMTV mice were treated with doxorubicin alone or doxorubicin and the TAT-N-MCJ-mts peptide and followed tumor size.

## COc1cccc2c1C(=O)c1c(O)c3c(c(O)c1C2=O)C[C@@](O)(C(=O)CO)C[C@@H]3O[C@H]1C[C@H](N)[C@H](O)[C@H](C)O1 [doxorubicin]
MCF7/ADR cells
  expansion of cells (viable cells): no effect on the expansion of MCF7/ADR cells
[1]
  tumor size over time: The size of the tumors in MMTV-Py mice was reduced; also recorded: tumor size in MMTV mice decreased over time
[2]; doxorubicin 2 mg/Kg i.p. every other day for two weeks, n=4
  tumor size over time: continued growing or did not shrink; also recorded: less reduction in tumor size; also recorded: did not decrease, and continued to increase over time
[2]; doxorubicin alone 2 mg/Kg i.p. at day 0, 2 and 3, harvested day 4, n=3
  tumor size (percentage relative to initial size): continued growing
MCF7 cells; 2 days
  effect on viable cells: sensitive to doxorubicin
MCF7 cells; vs media alone
  cell death: significant level of cell death

## YGKKRRQRRGMAARGVIAPVGESLRYAEYLGTRTWVPKGLKSP [TAT-N-MCJ-MTS]
[3]
  toxicity in vivo (abnormality in treated mice): no obvious abnormality was observed
